This note sets out measurements from ChEMBL document CHEMBL4321791, “TASK Channels Pharmacology: New Challenges in Drug Design” (J Med Chem, 2019).

The term IC50 denotes the point on the concentration scale where inhibition reaches its midpoint. A word on the inhibition: it is the percentage by which the read-out fell short of the control.

The target of experiment [1] is T1, Potassium channel subfamily K member 3 (Homo sapiens, UniProt O14649). Description: Inhibition of human TASK1 expressed in Xenopus oocytes by whole cell voltage clamp assay. The format is cell-based.
Target sequence in this assay (O14649 whole entry): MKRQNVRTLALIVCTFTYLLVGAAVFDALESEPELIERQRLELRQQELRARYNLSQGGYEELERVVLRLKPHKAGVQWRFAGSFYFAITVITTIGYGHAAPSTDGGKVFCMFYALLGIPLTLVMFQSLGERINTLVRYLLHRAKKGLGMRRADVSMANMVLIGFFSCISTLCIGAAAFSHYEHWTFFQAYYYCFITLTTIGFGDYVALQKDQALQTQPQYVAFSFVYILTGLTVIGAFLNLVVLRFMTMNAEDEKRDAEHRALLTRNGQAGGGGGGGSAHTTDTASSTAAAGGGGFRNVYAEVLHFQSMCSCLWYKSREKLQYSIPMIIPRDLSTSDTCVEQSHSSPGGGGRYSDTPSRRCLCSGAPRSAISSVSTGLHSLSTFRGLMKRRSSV
In experiment [2] the target is T2, Potassium channel subfamily K member 9 (Homo sapiens, UniProt Q9NPC2). In words: Activation of human TASK3 expressed in human tsA201 cells at 1 uM by whole cell patch clamp assay relative to control. The format is cell-based.
T2 sequence (Q9NPC2 whole entry): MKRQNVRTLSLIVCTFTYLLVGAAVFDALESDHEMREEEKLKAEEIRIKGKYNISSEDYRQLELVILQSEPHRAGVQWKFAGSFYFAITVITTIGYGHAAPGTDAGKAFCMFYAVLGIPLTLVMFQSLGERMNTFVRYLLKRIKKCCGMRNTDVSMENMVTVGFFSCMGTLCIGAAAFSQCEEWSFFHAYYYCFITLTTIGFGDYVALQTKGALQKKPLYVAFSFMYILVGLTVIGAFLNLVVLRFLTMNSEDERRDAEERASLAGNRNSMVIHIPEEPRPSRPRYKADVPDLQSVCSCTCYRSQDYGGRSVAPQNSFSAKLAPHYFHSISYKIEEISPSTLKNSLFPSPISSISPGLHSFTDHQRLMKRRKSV
The target in experiment [3] is T2, Potassium channel subfamily K member 9. In words: Inhibition of human TASK3 expressed in HEK293 cells by Ti+ flux assay. The class given is cell-based.
For another experiment, the species on record is Homo sapiens. Description: Selectivity index, ratio of IC50 for Kv1.5 channel (unknown origin) to IC50 for inhibition of human TASK1 expressed in Xenopus oocytes by whole cell voltage clamp assay. The format is cell-based.
Experiment [4] deals with T2, Potassium channel subfamily K member 9. Description: Inhibition of human TASK3 expressed in CHO cells by Inside-out macro-patches based electrophysiology assay. The format is cell-based.
The target is the same in experiment [5]. In words: Inhibition of human TASK3 expressed in Xenopus oocytes by whole cell voltage clamp assay. The format is cell-based.
In experiment [6] the target is T3, Potassium channel subfamily K member 9 (Rattus norvegicus, UniProt Q9ES08). In words: Inhibition of rat TASK3 expressed in (FRT) epithelial cells by chamber based electrophysiology assay. The format is cell-based.
T3 sequence (Q9ES08 whole entry): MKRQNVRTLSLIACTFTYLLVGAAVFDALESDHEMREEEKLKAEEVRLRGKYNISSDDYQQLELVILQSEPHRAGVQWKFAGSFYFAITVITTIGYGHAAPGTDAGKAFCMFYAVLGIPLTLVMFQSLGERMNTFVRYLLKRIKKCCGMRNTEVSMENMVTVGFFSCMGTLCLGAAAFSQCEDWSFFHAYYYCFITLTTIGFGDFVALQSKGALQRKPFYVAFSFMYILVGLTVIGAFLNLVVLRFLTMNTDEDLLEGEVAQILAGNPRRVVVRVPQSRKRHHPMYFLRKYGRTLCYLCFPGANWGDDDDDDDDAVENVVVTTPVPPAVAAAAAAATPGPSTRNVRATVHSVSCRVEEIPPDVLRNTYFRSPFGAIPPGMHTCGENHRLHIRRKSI
The target in experiment [7] is T4, Potassium channel subfamily K member 5 (Homo sapiens, UniProt O95279).
T4 sequence (O95279 whole entry): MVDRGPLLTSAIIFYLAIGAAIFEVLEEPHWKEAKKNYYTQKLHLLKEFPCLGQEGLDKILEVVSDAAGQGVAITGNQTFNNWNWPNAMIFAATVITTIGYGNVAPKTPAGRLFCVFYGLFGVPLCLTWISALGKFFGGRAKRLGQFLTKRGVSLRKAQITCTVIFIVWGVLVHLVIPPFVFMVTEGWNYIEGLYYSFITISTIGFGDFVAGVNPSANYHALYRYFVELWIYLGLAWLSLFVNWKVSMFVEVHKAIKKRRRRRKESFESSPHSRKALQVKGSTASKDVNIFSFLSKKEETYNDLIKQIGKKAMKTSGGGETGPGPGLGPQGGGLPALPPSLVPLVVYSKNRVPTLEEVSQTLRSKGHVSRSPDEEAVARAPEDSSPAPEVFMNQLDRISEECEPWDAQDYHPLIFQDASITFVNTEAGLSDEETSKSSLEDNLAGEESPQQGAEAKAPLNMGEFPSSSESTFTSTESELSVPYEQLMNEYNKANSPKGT
Description: Inhibition of human TASK2 expressed in CHO cells by Inside-out macro-patches based electrophysiology assay. The format is cell-based.

Experiment [8] addresses T5, Potassium channel subfamily K member 17 (Homo sapiens, UniProt Q96T54).
T5 sequence (Q96T54 whole entry): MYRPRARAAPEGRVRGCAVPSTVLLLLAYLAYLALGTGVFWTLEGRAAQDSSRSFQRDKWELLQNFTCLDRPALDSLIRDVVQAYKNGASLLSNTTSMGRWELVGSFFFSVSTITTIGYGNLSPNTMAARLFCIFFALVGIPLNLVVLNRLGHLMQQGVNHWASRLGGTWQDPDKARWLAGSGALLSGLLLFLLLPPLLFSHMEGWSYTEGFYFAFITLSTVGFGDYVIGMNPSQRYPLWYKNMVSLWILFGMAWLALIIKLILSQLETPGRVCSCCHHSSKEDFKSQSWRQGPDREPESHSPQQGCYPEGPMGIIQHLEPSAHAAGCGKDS
Description: Inhibition of human TASK4 expressed in CHO cells by Inside-out macro-patches based electrophysiology assay. The class given is cell-based.

Experiment [9] addresses T1, Potassium channel subfamily K member 3. Description: Inhibition of human TASK1 expressed in African green monkey COS7 cells by whole cell patch clamp assay. The class given is cell-based.
Target sequence in this assay (O14649 whole entry): as the sequence (O14649 whole entry) above
The target in experiment [10] is T3, Potassium channel subfamily K member 9. In words: Inhibition of rat TASK3 expressed in African green monkey COS7 cells by outside-out patches based electrophysiology assay. The format is cell-based.
Experiment [11] concerns the target T6, Potassium channel subfamily K member 3 (Rattus norvegicus, UniProt O54912). Description: Inhibition of rat TASK1 expressed in African green monkey COS7 cells by outside-out patches based electrophysiology assay. The class given is cell-based.
In experiment [12] the target is Potassium channel subfamily K member 9 (Rattus norvegicus) (UniProt Q9ES08). Description: Inhibition of rat TASK3 expressed in African green monkey COS7 cells at 100 uM by outside-out patches based electrophysiology assay relative to control. The class given is cell-based.
Potassium channel subfamily K member 9 (Rattus norvegicus), sequence (Q9ES08 whole entry): as the sequence (Q9ES08 whole entry) above
Experiment [13] deals with T2, Potassium channel subfamily K member 9. As to conditions: 1 uM.
Description: Inhibition of human TASK3 expressed in Xenopus oocytes at 1 uM by whole cell patch clamp assay relative to control
In experiment [14] the target is T3, Potassium channel subfamily K member 9. In words: Inhibition of rat TASK3 expressed in Xenopus oocytes by whole cell voltage clamp assay. The class given is cell-based.
Experiment [15] has as its target T6, Potassium channel subfamily K member 3. Description: Inhibition of rat TASK1 expressed in Xenopus oocytes by whole cell voltage clamp assay. The class given is cell-based.
In experiment [16] the target is Potassium channel subfamily K member 9 (Rattus norvegicus) (UniProt Q9ES08). Description: Inhibition of rat TASK3 expressed in African green monkey COS7 cells at 1 mM by outside-out patches based electrophysiology assay relative to control. The class given is cell-based.
Experiment [17] has as its target T2, Potassium channel subfamily K member 9. Description: Inhibition of human TASK3 expressed in HEK293 by whole cell voltage clamp assay. The format is cell-based.
For experiment [18], the target named is T1, Potassium channel subfamily K member 3. In words: Inhibition of human TASK1 by whole cell voltage clamp assay.
Target sequence in this assay (O14649 whole entry): as the sequence (O14649 whole entry) above
Experiment [19] concerns the target T2, Potassium channel subfamily K member 9. Description: Activation of human TASK3 expressed in Xenopus oocytes at 1 mM by whole cell patch clamp assay relative to control. The class given is cell-based. In general terms: In patch-clamp work, channel activity is measured electrically.
Experiment [20] shares this target. Description: Inhibition of human TASK3 expressed in CHOK1 cells by Ti+ flux assay. The class given is cell-based.
Experiment [21] concerns the target T1, Potassium channel subfamily K member 3. Description: Activation of human TASK1 expressed in African green monkey COS cells at 1 mM by whole cell patch clamp assay relative to control. The format is cell-based.
Target sequence in this assay (O14649 whole entry, looked up): as the sequence (O14649 whole entry) above
Experiment [22] shares this target. Description: Activation of human TASK1 expressed in African green monkey COS cells at 0.1 to 1 mM by whole cell patch clamp assay relative to control. The class given is cell-based.
Target sequence in this assay (O14649 whole entry, looked up): as the sequence (O14649 whole entry) above
The target is the same in experiment [23]. In words: Inhibition of human TASK1 expressed in African green monkey COS cells by whole cell patch clamp assay. The format is cell-based.
Target sequence in this assay (O14649 whole entry): as above
Experiment [24] has the same target. Description: Inhibition of human TASK1 expressed in African green monkey COS cells at 0.6 mM by whole cell patch clamp assay relative to control. The format is cell-based.
Target sequence in this assay (O14649 whole entry, looked up): as the sequence (O14649 whole entry) above
Experiment [25] shares this target. Description: Activation of human TASK1 expressed in African green monkey COS cells at 2 mM by whole cell patch clamp assay relative to control. The class given is cell-based.
Target sequence in this assay (O14649 whole entry, looked up): as the sequence (O14649 whole entry) above

Counter-ions that a name gives are not always drawn.

T6 sequence (O54912 whole entry): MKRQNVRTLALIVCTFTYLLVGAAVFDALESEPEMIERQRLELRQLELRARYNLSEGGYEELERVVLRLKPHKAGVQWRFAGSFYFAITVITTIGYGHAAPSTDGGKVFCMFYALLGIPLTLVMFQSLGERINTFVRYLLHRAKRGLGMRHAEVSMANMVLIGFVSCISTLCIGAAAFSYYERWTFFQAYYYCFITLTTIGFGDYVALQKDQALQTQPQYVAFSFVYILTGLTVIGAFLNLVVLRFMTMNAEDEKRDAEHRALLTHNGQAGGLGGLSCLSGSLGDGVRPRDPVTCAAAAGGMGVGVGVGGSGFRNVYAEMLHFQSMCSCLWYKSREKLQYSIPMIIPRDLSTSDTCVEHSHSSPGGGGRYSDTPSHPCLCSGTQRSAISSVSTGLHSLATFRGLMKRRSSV

In experiment [1], `COc1ccc(CC(=O)NCc2ccccc2-c2ccccc2C(=O)NCCc2cccnc2)cc1` showed an IC50 of 0.6 µM.

For `CN(C/C=C/C#CC(C)(C)C)Cc1cccc2ccccc12`, in experiment [2], the Activity is 30%.

Regarding `CCCN(CC)C(CC)C(=O)Nc1c(C)cccc1C` (stereo not given) [ETIDOCAINE], in experiment [1], the IC50 came out at 39 µM.

Take `Ic1ccccc1CN[C@@H]1C2CCN(CC2)[C@@H]1C(c1ccccc1)c1ccccc1`: the IC50 in [3] is 45.5 µM.

`CCOC(=O)N1CCC(=C2c3ccc(Cl)cc3CCc3cccnc32)CC1` [LORATADINE]: in [3] (hek293), the midpoint of inhibition, the IC50, lay at 63.4 µM.

`COc1ccc(CC(=O)NCc2ccccc2-c2ccccc2C(=O)NCc2ccc(F)cc2F)cc1`: the Ratio IC50 in the experiment filed under Homo sapiens was 68. In addition, the IC50 in experiment [4] amounted to 0.07 µM; in [5], 0.318 µM; in experiment [6], 0.036 µM; in experiment [1] it was 0.035 µM; in [7] it was 12 µM; in experiment [8], 8.1 µM.

Consider `CCCCC/C=C\C/C=C\C/C=C\C/C=C\CCCC(=O)NCCO` [ANANDAMIDE], for which the midpoint of inhibition in [9], the IC50, lay at 3 µM.

Consider `CCOC(=O)c1cc(C)n2c1-c1cc(OC)c(OC)cc1CC2`, for which, in experiment [1], the IC50 came out at 83.5 µM.

Turning to `CCCCNc1ccc(C(=O)OCCN(C)C)cc1` [TETRACAINE], the IC50 in experiment [1] was found to be 668 µM.

Take `CCCCN1CCCCC1C(=O)Nc1c(C)cccc1C` (stereo not given) [BUPIVACAINE]: the IC50 is 100 µM in experiment [10], 41 µM in experiment [1] and 41 to 68 µM in [11]. Moreover, the inhibition in experiment [12] came to 56%.

In experiment [1], `CCCN1CCCC[C@H]1C(=O)Nc1c(C)cccc1C` [ROPIVACAINE] yielded an IC50 of 53 µM.

In [13], `CC[N+](CC)(CC)CC` came in with an inhibition of 6.1%.

Consider `CCN1CC(CCN2CCOCC2)C(c2ccccc2)(c2ccccc2)C1=O` (stereo not given) [DOXAPRAM], for which the IC50 in [14] came out at 37 µM; in experiment [6], 16 µM; in experiment [15] it was 0.41 µM.

Regarding `C=C[C@H]1CN2CC[C@H]1C[C@@H]2[C@@H](O)c1ccnc2ccc(OC)cc12`, the inhibition in experiment [12] amounted to 37%.

In turn, `COc1cc2c(cc1OC)-c1c(C#N)c(-c3ccccc3)c(C)n1CC2` registered an IC50 in experiment [5] of 189 µM.

`CCN(CC)CC(=O)Nc1c(C)cccc1C` [LIDOCAINE]: the inhibition in experiment [16] was 62%. In experiment [1], this molecule gave an IC50 of 222 µM.

As to `COc1ccc(-n2nc(Sc3ccc(C)cc3)c(C)c(C#N)c2=O)cc1`, the IC50 in experiment [1] was 0.35 µM.

As to `CC(C1CC2CCC1C2)n1c(S)nnc1-c1ccco1` (stereo not given), the IC50 came to 0.413 µM in experiment [17] and 3.2 µM in [18].

In turn, `COCC(=O)O[C@]1(CCN(C)CCCc2nc3ccccc3[nH]2)CCc2cc(F)ccc2[C@@H]1C(C)C` [MIBEFRADIL DIHYDROCHLORIDE] yielded an IC50 in experiment [3] (hek293) of 24.6 µM.

With `CCCCS(=O)(=O)Nc1ccccc1C(=O)NC(CC)c1ccc(OC)nc1` (stereo not given), the IC50 was determined as 0.22 µM in experiment [18], 0.95 µM in experiment [5] and 0.222 µM in experiment [1].

Molecule `CCCN1CCCC[C@@H]1C(=O)Nc1c(C)cccc1C` came in with an IC50 in experiment [1] of 51 µM.

In turn, `CCc1ccc(S(=O)(=O)NC2c3cc(NC(=O)c4cccc(OC)c4)ccc3CC2O)cc1` (stereo not given) came in with an IC50 in experiment [1] of 1.05 µM.

As for `[Cl-].[Cs+]`, in [19], the Activity stood at 7.7%.

For the molecule `CCOC(=O)c1c(-c2cccs2)c(C)n2c1-c1cc(OC)c(OC)cc1CC2`, the IC50 in [1] was 96.7 µM.

For the molecule `CN1CCN(C2Cc3ccccc3Sc3ccc(Cl)cc32)CC1` (racemic), the IC50 in [3] was found to be 73.8 µM.

With `O=C(NCc1ccccc1-c1ccccc1C(=O)NCCc1ccccn1)OCc1ccccc1`, in [1], half-maximal inhibition (IC50) was put at 0.2 µM.

Regarding `CN(C)c1cc2c(Nc3ccc4c(cnn4Cc4ccccc4)c3)ncnc2cn1` [GW282974X], the midpoint of inhibition in experiment [3], the IC50, lay at 50.1 µM.

As to `O=C(NCCNc1ccc([N+](=O)[O-])cc1C(F)(F)F)c1ccccc1`, the fold change (FC) in experiment [20] was 6.

In the case of `CC[C@H](C)C(=O)O[C@H]1CCC=C2C=C[C@H](C)[C@H](CC[C@@H]3C[C@@H](O)CC(=O)O3)[C@H]21` [MEVASTATIN], it took 159 µM to reach half-maximal inhibition in experiment [3] (IC50).

For the molecule `Cc1cccc(C)c1NC(=O)C1CCCCN1C` (stereo not given) [MEPIVACAINE], the IC50 in [1] was 709 µM.

`CCOC(=O)c1c(-c2cccc(N)c2)c(C)n2c1-c1cc(OC)c(OC)cc1CC2`: in experiment [5], inhibition was half-maximal at 268 µM (IC50).

`CN1CCN(C2Cc3ccccc3Sc3ccc(Cl)cc32)CC1` (stereo not given) [CLOROTEPINE] returned an IC50 in experiment [3] (hek293) of 73.8 µM.

In experiment [3], `CC[C@@H]1/C=C/C=C/C[C@H](C)[C@@H](O)[C@](C)(O)C(=O)[C@H](C)[C@@H](O)[C@H](C)C(=O)[C@H](C)[C@@H](O)[C@H](C)/C=C/C(=O)O[C@H]2[C@@H](C)[C@@H](CC1)O[C@@]1(CC[C@@H](C)[C@@H](C[C@H](C)O)O1)[C@@H]2C` came in with an IC50 of 47.7 µM.

Turning to `FC(F)(F)C(Cl)Br` (stereo not given), the Activity in experiment [21] was 60%; in [19] it was 65.6%; in [22], over 60%.

`CCCCC/C=C\C/C=C\C/C=C\C/C=C\CCCC(=O)N[C@H](C)CO` [METHANANDAMIDE]: inhibition in experiment [23] was half-maximal at 0.1 µM (IC50).

On to `CCCC(=O)C1CCN(c2ncnc3c2CN(C(=O)c2ccc(-c4ccccc4)cc2)CC3)CC1`, for which the IC50 in [6] worked out at 0.01 µM.

In turn, `CCOCC` displayed an inhibition in experiment [24] of 40%.

`FC(F)OC(Cl)C(F)(F)F` (stereo not given) came in with an Activity in experiment [25] of 25%.
